“Also recorded” adds a separate entry of the source.
Columns and labels:
Assay type in all cases: cell-based, human
HEY cells [1] = assay: sensitivity of transfected HEY cells to cisplatin; settings: miR-429 vs negative control miRNA
Protocol: Cultures of the mesenchymal HEY cells were transfected with a negative control (NC) miRNA or miR-429 using Lipofectamine 2000 (Invitrogen) and treated with increasing concentrations of cisplatin. (0.1, 0.5, 1, 3, 5, 7, 10, 15, 20, 30, 50 μM).

HEY cells [2] = assay: serum-induced migration, trans-well chamber assay; settings: miR-429 transfected HEY cells vs negative control
Protocol: For the migration and invasion assays, 2.5×10^3 overnight serum starved cells in serum-free media were added to the top chambers of trans-well plates (8 μm pore size; BD, Franklin Lakes, N.J.) and media containing 10% fetal calf serum (FCS) were added to the bottom chambers. After 8-12 h, the non-migrating (top) cells were removed and the invading (bottom) cells were counted. All assays were done in triplicate. For the wound-healing assay, 2.5×10^5 cells were seeded into six-well plates. After 24 h, a wound was incised, detached cells removed and fresh media added. Photos were taken after 8 hrs to monitor the invasion of cells into the wounded area.
To further explore the effects of ectopic expression of miR-429 in HEY cells, we looked for changes in cellular functions frequently associated with EMT. For example, ovarian and other types of cancer cells undergoing EMT typically display increased motility/migration and invasiveness. […] Relative invasiveness was also measured by monitoring serum-induced invasion through a matrigel layer.

HEY cells [3] = assay: morphology of HEY cells after microRNA transfection; settings: transfected with 30 nM miRNA, vs negative control
Source text: The OVCAR3 cell line was originally established from the ascites of a patient with poorly differentiated papillary epithelial OC [Hamilton et al., Cancer Res 1985, 45:3668-76]. The OVCAR3 cell line was obtained from the American Type Culture Collection (Manassas, Va.). The HEY cell line was derived from a patient with moderately differentiated papillary cystadenocarcinoma of the ovary [Buick et al., Cancer Res 1985, 45:3668-76]. The HEY cell line was kindly provided by Gordon Mills, Department of Molecular Therapeutics, University of Texas, MD Anderson Cancer Center.
6×10^4 cells per well were seeded in 24-well plates. After 24 h, cells were transfected with 30 nM of miR-429 and miR-320 miRNA oligonucleotides (Ambion, Austin, Tex.) using Lipofectamine 2000 reagent (Invitrogen, Carlsbad, Calif.). The Ambion Pre-miRNA Precursor Negative Control was used as a control. Three days after transfection, cells were split and transfected again. This process was repeated every 3 days until 21 days when cells were assayed for response.

Substance: miR-429: miR-200 family member; mature miRNA UAAUACUGUCUGGUAAAACCGU (SEQ ID NO: 6); miRNA oligonucleotide (Ambion) transfected at 30 nM (listed as RNA, chemistry not given here; listed as Homo sapiens) [miR-200 family member; miRNA oligonucleotide (Ambion) transfected at 30 nM]
- sensitivity to cisplatin (HEY cells [1]): increased significantly
- migration through pores, slower than negative controls (HEY cells [2]): > 2 fold
- morphological change of HEY cells (HEY cells [3]): morphological change from an elongated, spindle-shaped, mesenchymal phenotype to a more rounded, epithelial-like phenotype; also recorded: change from an elongated mesenchymal-like morphology to a rounded epithelial-like morphology

From patent US8895509B2, “MIR-200 family induces mesenchymal-to-epithelial transition (MET) in ovarian cancer cells” (Georgia Tech Research Corporation, priority 2010, dated 2014)
